Here are results for 10 compounds from ChEMBL document CHEMBL3045012, “Quinoline-based azetidinone and thiazolidinone analogues as antimicrobial and antituberculosis agents” (2013).

Values after ≈ are worked out from the molar mass of the structure shown.

What all share (format): functional
Experiment [1] relates to Mycobacterium tuberculosis. In words: Antituberculosis activity against Mycobacterium tuberculosis H37Rv assessed as growth inhibition after 12 to 28 days by L-J MIC method. The conditions noted are these: for MIC: Mycobacterium tuberculosis, H37Rv.
Experiment [2] concerns Pseudomonas aeruginosa. In words: Antimicrobial activity against Pseudomonas aeruginosa MTCC 741 assessed as diameter of growth inhibition zone after 24 hr by paper disk diffusion technique. Background: A growth-free zone around the sample is the usual read-out of agar diffusion tests.
Experiment [3] deals with Aspergillus niger. As to the kind of experiment: Antimicrobial activity against Aspergillus niger MTCC 282 assessed as growth inhibition after 48 hr by agar streak dilution technique. The conditions noted are these: MTCC 282, 48 h.
Experiment [4] concerns Candida albicans. In words: Antimicrobial activity against Candida albicans MTCC 183 assessed as diameter of growth inhibition zone after 24 hr by paper disk diffusion technique.
For experiment [5], the system named is Bacillus subtilis. In words: Antimicrobial activity against Bacillus subtilis MTCC 430 assessed as growth inhibition after 24 hr by agar streak dilution technique. The conditions noted are these: MTCC 430, 24 h.
The subject of experiment [6] is Escherichia coli. In words: Antimicrobial activity against Escherichia coli MTCC 739 assessed as diameter of growth inhibition zone after 24 hr by paper disk diffusion technique.
Experiment [7] relates to Pseudomonas aeruginosa. In words: Antimicrobial activity against Pseudomonas aeruginosa MTCC 741 assessed as growth inhibition after 24 hr by agar streak dilution technique. Particulars: MTCC 741, 24 h.
For experiment [8], the system named is Staphylococcus aureus. In words: Antimicrobial activity against Staphylococcus aureus MTCC 96 assessed as diameter of growth inhibition zone after 24 hr by paper disk diffusion technique.
Experiment [9] relates to Bacillus subtilis. In words: Antimicrobial activity against Bacillus subtilis MTCC 430 assessed as diameter of growth inhibition zone after 24 hr by paper disk diffusion technique.
For experiment [10], the system named is Candida albicans. In words: Antimicrobial activity against Candida albicans MTCC 183 assessed as growth inhibition after 48 hr by agar streak dilution technique. The conditions noted are these: MTCC 183, 48 h.
In experiment [11] the test system is Staphylococcus aureus. As to the kind of experiment: Antimicrobial activity against Staphylococcus aureus MTCC 96 assessed as growth inhibition after 24 hr by agar streak dilution technique. The conditions noted are these: MTCC 96, 24 h.
Experiment [12] has as its system Aspergillus niger. In words: Antimicrobial activity against Aspergillus niger MTCC 282 assessed as diameter of growth inhibition zone after 24 hr by paper disk diffusion technique.
Experiment [13] has as its system Escherichia coli. As to the kind of experiment: Antimicrobial activity against Escherichia coli MTCC 739 assessed as growth inhibition after 24 hr by agar streak dilution technique. Particulars: MTCC 739, 24 h.

Broadly, the MIC is the lowest concentration found to suppress growth. In the case of `O=C1C(Cl)C(c2cc3ccccc3nc2Cl)N1c1ccc(F)cc1` (stereo not given), in experiment [1], the “growth inhibition (GI)” value is reported as 98%. Besides, the MIC in experiment [1] was 25 µg/mL (≈ 69.2 µM); in the experiment on Aspergillus niger [3], 25 µg/mL (≈ 69.2 µM); in the experiment on Bacillus subtilis [5] it was 25 µg/mL (≈ 69.2 µM); with Pseudomonas aeruginosa [7], 50 µg/mL (≈ 138 µM); in the experiment on Candida albicans [10] it was 50 µg/mL (≈ 138 µM); in the experiment with Staphylococcus aureus [11], 25 µg/mL (≈ 69.2 µM). In addition, the MIC in the experiment with Escherichia coli [13] was determined as 25 µg/mL (≈ 69.2 µM). The “diameter of the inhibition zone (DIZ)” value in the experiment on Pseudomonas aeruginosa [2] turned out to be 22 mm; with Candida albicans [4], 24 mm; in the experiment with Escherichia coli [6], 23 mm; with Staphylococcus aureus [8], 23 mm; in the experiment on Bacillus subtilis [9], 23 mm; with Aspergillus niger [12] it was 26 mm.
`Cc1cnc(N2C(=O)C(Cl)C2c2cc3ccccc3nc2Cl)s1` (stereo not given): the “growth inhibition (GI)” value in experiment [1] is recorded as 99%. The MIC in experiment [1] is 12.5 µg/mL (≈ 34.3 µM); with Aspergillus niger [3] it was 62.5 µg/mL (≈ 172 µM); in the experiment on Bacillus subtilis [5] it was 50 µg/mL (≈ 137 µM); with Pseudomonas aeruginosa [7], 50 µg/mL (≈ 137 µM); in the experiment with Candida albicans [10], 100 µg/mL (≈ 275 µM); in the experiment on Staphylococcus aureus [11], 50 µg/mL (≈ 137 µM). For the same compound, the minimum inhibitory concentration (MIC) with Escherichia coli [13] was 25 µg/mL (≈ 68.6 µM). In addition, the “diameter of the inhibition zone (DIZ)” value in the experiment on Pseudomonas aeruginosa [2] worked out at 21 mm; in the experiment with Candida albicans [4], 23 mm; with Escherichia coli [6], 24 mm; in the experiment with Staphylococcus aureus [8] it was 23 mm; in the experiment with Bacillus subtilis [9] it was 21 mm; with Aspergillus niger [12] it was 23 mm.
Consider `O=C1CSC(c2cc3ccccc3nc2Cl)N1c1ccccc1` (stereo not given), for which the “growth inhibition (GI)” value in [1] is reported as 92%. The MIC in experiment [1] was 250 µg/mL (≈ 733 µM); in the experiment on Aspergillus niger [3], 100 µg/mL (≈ 293 µM); in the experiment with Bacillus subtilis [5] it was 100 µg/mL (≈ 293 µM); with Pseudomonas aeruginosa [7] it was 100 µg/mL (≈ 293 µM); in the experiment with Candida albicans [10], 100 µg/mL (≈ 293 µM); with Staphylococcus aureus [11], 100 µg/mL (≈ 293 µM). Further, the minimum inhibitory concentration (MIC) in the experiment with Escherichia coli [13] stood at 100 µg/mL (≈ 293 µM). Further, the “diameter of the inhibition zone (DIZ)” value with Pseudomonas aeruginosa [2] is 13 mm; in the experiment with Candida albicans [4] it was <10 mm; with Escherichia coli [6], <10 mm; in the experiment on Staphylococcus aureus [8], 17 mm; in the experiment on Bacillus subtilis [9], <10 mm; with Aspergillus niger [12] it was 14 mm.
Consider `Cc1ccccc1N1C(=O)CSC1c1cc2ccccc2nc1Cl` (stereo not given), for which the “growth inhibition (GI)” value in [1] was 90%. The minimum inhibitory concentration (MIC) was determined as 500 µg/mL (≈ 1410 µM) in experiment [1]; 100 µg/mL (≈ 282 µM) with Aspergillus niger [3]; 100 µg/mL (≈ 282 µM) with Bacillus subtilis [5]; 100 µg/mL (≈ 282 µM) in the experiment with Pseudomonas aeruginosa [7]; 100 µg/mL (≈ 282 µM) in the experiment on Candida albicans [10]; 100 µg/mL (≈ 282 µM) in the experiment with Staphylococcus aureus [11]. In addition, the minimum inhibitory concentration (MIC) in the experiment on Escherichia coli [13] turned out to be 100 µg/mL (≈ 282 µM). The “diameter of the inhibition zone (DIZ)” value with Pseudomonas aeruginosa [2], in the experiment with Candida albicans [4], in the experiment on Escherichia coli [6], in the experiment with Staphylococcus aureus [8], with Bacillus subtilis [9] and with Aspergillus niger [12] was <10 mm each time.
As to `Cc1cccc(N2C(=O)CSC2c2cc3ccccc3nc2Cl)c1` (stereo not given), in [1], the “growth inhibition (GI)” value was 90%. Moreover, the minimal inhibitory concentration (MIC) was found to be 500 µg/mL (≈ 1410 µM) in experiment [1]; 100 µg/mL (≈ 282 µM) in the experiment with Aspergillus niger [3]; 100 µg/mL (≈ 282 µM) in the experiment on Bacillus subtilis [5]; 100 µg/mL (≈ 282 µM) with Pseudomonas aeruginosa [7]; 100 µg/mL (≈ 282 µM) with Candida albicans [10]; 100 µg/mL (≈ 282 µM) with Staphylococcus aureus [11]. In addition, the minimal inhibitory concentration (MIC) with Escherichia coli [13] was determined as 100 µg/mL (≈ 282 µM). Also, the “diameter of the inhibition zone (DIZ)” value with Pseudomonas aeruginosa [2] was 16 mm; in the experiment with Candida albicans [4] it was 13 mm; with Escherichia coli [6], <10 mm; in the experiment with Staphylococcus aureus [8], 18 mm; in the experiment with Bacillus subtilis [9], 17 mm; in the experiment on Aspergillus niger [12], 19 mm.
On to `Cc1ccc(N2C(=O)CSC2c2cc3ccccc3nc2Cl)cc1` (stereo not given), for which the “growth inhibition (GI)” value in experiment [1] was determined as 94%. For the same compound, the minimal inhibitory concentration (MIC) is 250 µg/mL (≈ 704 µM) in experiment [1]; 100 µg/mL (≈ 282 µM) in the experiment on Aspergillus niger [3]; 100 µg/mL (≈ 282 µM) in the experiment on Bacillus subtilis [5]; 62.5 µg/mL (≈ 176 µM) with Pseudomonas aeruginosa [7]; 100 µg/mL (≈ 282 µM) with Candida albicans [10]; 100 µg/mL (≈ 282 µM) with Staphylococcus aureus [11]. Further, the minimum inhibitory concentration (MIC) with Escherichia coli [13] is 100 µg/mL (≈ 282 µM). In addition, the “diameter of the inhibition zone (DIZ)” value was 20 mm in the experiment on Pseudomonas aeruginosa [2]; 17 mm in the experiment with Candida albicans [4]; 17 mm in the experiment with Escherichia coli [6]; 19 mm with Staphylococcus aureus [8]; 19 mm with Bacillus subtilis [9]; <10 mm with Aspergillus niger [12].
On to `O=C1CSC(c2cc3ccccc3nc2Cl)N1c1ccccc1[N+](=O)[O-]` (stereo not given), for which the “growth inhibition (GI)” value in [1] was 93%. The minimum inhibitory concentration (MIC) in experiment [1] was found to be 200 µg/mL (≈ 518 µM); with Aspergillus niger [3], 50 µg/mL (≈ 130 µM); with Bacillus subtilis [5] it was 62.5 µg/mL (≈ 162 µM); with Pseudomonas aeruginosa [7], 12.5 µg/mL (≈ 32.4 µM); with Candida albicans [10], 100 µg/mL (≈ 259 µM); with Staphylococcus aureus [11], 25 µg/mL (≈ 64.8 µM). In the experiment with Escherichia coli [13], the minimal inhibitory concentration (MIC) came to 12.5 µg/mL (≈ 32.4 µM). The “diameter of the inhibition zone (DIZ)” value in the experiment with Pseudomonas aeruginosa [2] is on record as 25 mm; in the experiment with Candida albicans [4], 20 mm; with Escherichia coli [6], 24 mm; in the experiment on Staphylococcus aureus [8] it was 25 mm; in the experiment with Bacillus subtilis [9], 21 mm; with Aspergillus niger [12], 22 mm.
As to `O=C1CSC(c2cc3ccccc3nc2Cl)N1c1cccc([N+](=O)[O-])c1` (stereo not given), in experiment [1], the “growth inhibition (GI)” value was 94%. Also, the MIC in experiment [1] stood at 100 µg/mL (≈ 259 µM); in the experiment on Aspergillus niger [3] it was 25 µg/mL (≈ 64.8 µM); with Bacillus subtilis [5], 50 µg/mL (≈ 130 µM); in the experiment with Pseudomonas aeruginosa [7] it was 12.5 µg/mL (≈ 32.4 µM); in the experiment with Candida albicans [10] it was 25 µg/mL (≈ 64.8 µM); in the experiment with Staphylococcus aureus [11], 12.5 µg/mL (≈ 32.4 µM). For the same compound, the minimal inhibitory concentration (MIC) with Escherichia coli [13] turned out to be 62.5 µg/mL (≈ 162 µM). For the same compound, the “diameter of the inhibition zone (DIZ)” value is recorded as 24 mm in the experiment on Pseudomonas aeruginosa [2]; 23 mm with Candida albicans [4]; 22 mm with Escherichia coli [6]; 26 mm in the experiment on Staphylococcus aureus [8]; 22 mm in the experiment on Bacillus subtilis [9]; 24 mm in the experiment on Aspergillus niger [12].
As for `O=C1CSC(c2cc3ccccc3nc2Cl)N1c1ccc([N+](=O)[O-])cc1` (stereo not given), in experiment [1], the “growth inhibition (GI)” value was determined as 97%. Further, the MIC in experiment [1] stood at 50 µg/mL (≈ 130 µM); in the experiment with Aspergillus niger [3], 12.5 µg/mL (≈ 32.4 µM); in the experiment on Bacillus subtilis [5], 50 µg/mL (≈ 130 µM); in the experiment with Pseudomonas aeruginosa [7], 12.5 µg/mL (≈ 32.4 µM); in the experiment with Candida albicans [10], 25 µg/mL (≈ 64.8 µM); in the experiment with Staphylococcus aureus [11], 12.5 µg/mL (≈ 32.4 µM). The MIC in the experiment with Escherichia coli [13] is 62.5 µg/mL (≈ 162 µM). The “diameter of the inhibition zone (DIZ)” value in the experiment with Pseudomonas aeruginosa [2] amounted to 25 mm; with Candida albicans [4], 24 mm; in the experiment on Escherichia coli [6], 21 mm; in the experiment on Staphylococcus aureus [8], 26 mm; in the experiment on Bacillus subtilis [9], 23 mm; with Aspergillus niger [12] it was 24 mm.
In the case of `O=C1CSC(c2cc3ccccc3nc2Cl)N1c1ccccc1Cl` (stereo not given), the “growth inhibition (GI)” value in experiment [1] was 95%. Also, the minimal inhibitory concentration (MIC) in experiment [1] turned out to be 100 µg/mL (≈ 266 µM); in the experiment on Aspergillus niger [3], 62.5 µg/mL (≈ 167 µM); with Bacillus subtilis [5], 12.5 µg/mL (≈ 33.3 µM); with Pseudomonas aeruginosa [7], 25 µg/mL (≈ 66.6 µM); in the experiment with Candida albicans [10], 62.5 µg/mL (≈ 167 µM); in the experiment on Staphylococcus aureus [11] it was 50 µg/mL (≈ 133 µM). Further, the MIC in the experiment on Escherichia coli [13] turned out to be 62.5 µg/mL (≈ 167 µM). Moreover, the “diameter of the inhibition zone (DIZ)” value with Pseudomonas aeruginosa [2] worked out at 21 mm; in the experiment on Candida albicans [4], 21 mm; in the experiment on Escherichia coli [6], 21 mm; in the experiment with Staphylococcus aureus [8], 21 mm; in the experiment with Bacillus subtilis [9], 23 mm; with Aspergillus niger [12], 20 mm.
